Assay results: ChEMBL document CHEMBL1201862, “PubChem BioAssay data set” (2004)
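How tested: cells in 96-well plates exposed to compound for 48 hours at five concentrations. At the GI50, growth is halved.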 Calls of active or inactive are those of the source. No stated cut-off is given here; in the data, active = GI50 up to about 1.1 µM and inactive = higher.

Columns and labels:
Assay in all cases: NCI-60 cell line screen, 48 h
786-0 = system: 786-0
A498 = system: A498
A549 = system: A549
ACHN = system: ACHN
BT-549 = system: BT-549
CAKI-1 = system: CAKI-1
CCRF-CEM = system: CCRF-CEM
COLO 205 = system: COLO 205
DU-145 = system: DU-145
EKVX = system: EKVX
HCC 2998 = system: HCC 2998
HCT-116 = system: HCT-116
HCT-15 = system: HCT-15
HL-60 = system: HL-60
HOP-62 = system: HOP-62
HOP-92 = system: HOP-92
HT-29 = system: HT-29
Hs-578T = system: Hs-578T
IGROV-1 = system: IGROV-1
K562 = system: K562
KM12 = system: KM12
LOX IMVI = system: LOX IMVI
M14 = system: M14
MCF7 = system: MCF7
MDA-MB-231 = system: MDA-MB-231
MDA-MB-435 = system: MDA-MB-435
MDA-N = system: MDA-N
MOLT-4 = system: MOLT-4
Malme-3M = system: Malme-3M
NCI-H226 = system: NCI-H226
NCI-H23 = system: NCI-H23
NCI-H460 = system: NCI-H460
NCI-H522 = system: NCI-H522
NCI/ADR-RES = system: NCI/ADR-RES
OVCAR-3 = system: OVCAR-3
OVCAR-4 = system: OVCAR-4
OVCAR-5 = system: OVCAR-5
OVCAR-8 = system: OVCAR-8
PC-3 = system: PC-3
RPMI-8226 = system: RPMI-8226
RXF 393 = system: RXF 393
SF-268 = system: SF-268
SF-295 = system: SF-295
SF-539 = system: SF-539
SK-MEL-28 = system: SK-MEL-28
SK-MEL-2 = system: SK-MEL-2
SK-MEL-5 = system: SK-MEL-5
SK-OV-3 = system: SK-OV-3
SN12C = system: SN12C
SNB-19 = system: SNB-19
SNB-75 = system: SNB-75
SW-620 = system: SW-620
T47D = system: T47D
TK-10 = system: TK-10
U-251 = system: U-251
UACC-257 = system: UACC-257
UACC-62 = system: UACC-62
UO-31 = system: UO-31
SR = system: SR

CN(C)c1ccc(/C=C(\NC(=O)c2ccccc2)c2nc3ccccc3c(=O)o2)cc1
GI50 (786-0): > 100 µM (inactive)
GI50 (A498): > 100 µM (inactive)
GI50 (A549): > 100 µM (inactive)
GI50 (ACHN): > 100 µM (inactive)
GI50 (BT-549): > 100 µM (inactive)
GI50 (CAKI-1): > 100 µM (inactive)
GI50 (CCRF-CEM): > 100 µM (inactive)
GI50 (COLO 205): > 100 µM (inactive)
GI50 (DU-145): > 100 µM (inactive)
GI50 (EKVX): > 100 µM (inactive)
GI50 (HCC 2998): > 100 µM (inactive)
GI50 (HCT-116): > 100 µM (inactive)
GI50 (HCT-15): > 100 µM
GI50 (HL-60): > 100 µM (inactive)
GI50 (HOP-62): 71.1 µM (inactive)
GI50 (HOP-92): > 100 µM (inactive)
GI50 (HT-29): > 100 µM (inactive)
GI50 (Hs-578T): > 100 µM (inactive)
GI50 (IGROV-1): > 100 µM (inactive)
GI50 (K562): > 100 µM (inactive)
GI50 (KM12): > 100 µM (inactive)
GI50 (LOX IMVI): > 100 µM (inactive)
GI50 (M14): > 100 µM (inactive)
GI50 (MCF7): 70.5 µM (inactive)
GI50 (MDA-MB-231): > 100 µM (inactive)
GI50 (MDA-MB-435): > 100 µM (inactive)
GI50 (MDA-N): 83.4 µM (inactive)
GI50 (MOLT-4): > 100 µM (inactive)
GI50 (Malme-3M): > 100 µM (inactive)
GI50 (NCI-H226): > 100 µM (inactive)
GI50 (NCI-H23): > 100 µM (inactive)
GI50 (NCI-H460): > 100 µM (inactive)
GI50 (NCI-H522): 46.7 µM (inactive)
GI50 (NCI/ADR-RES): > 100 µM (inactive)
GI50 (OVCAR-3): > 100 µM (inactive)
GI50 (OVCAR-4): > 100 µM (inactive)
GI50 (OVCAR-5): > 100 µM (inactive)
GI50 (OVCAR-8): 43.4 µM (inactive)
GI50 (PC-3): > 100 µM (inactive)
GI50 (RPMI-8226): > 100 µM (inactive)
GI50 (RXF 393): > 100 µM (inactive)
GI50 (SF-268): > 100 µM (inactive)
GI50 (SF-295): > 100 µM (inactive)
GI50 (SF-539): > 100 µM (inactive)
GI50 (SK-MEL-28): > 100 µM (inactive)
GI50 (SK-MEL-2): > 100 µM (inactive)
GI50 (SK-MEL-5): 91.4 µM (inactive)
GI50 (SK-OV-3): > 100 µM (inactive)
GI50 (SN12C): > 100 µM (inactive)
GI50 (SNB-19): > 100 µM (inactive)
GI50 (SNB-75): > 100 µM (inactive)
GI50 (SW-620): > 100 µM (inactive)
GI50 (T47D): > 100 µM (inactive)
GI50 (TK-10): > 100 µM (inactive)
GI50 (U-251): 82 µM (inactive)
GI50 (UACC-257): > 100 µM (inactive)
GI50 (UACC-62): > 100 µM (inactive)
GI50 (UO-31): > 100 µM (inactive)

O=c1[nH]c(=O)n(C2CC(O)C(CO)O2)cc1/N=N/NCCc1ccccc1 (stereo not drawn)
GI50 (786-0): > 100 µM (inactive)
GI50 (A549): > 100 µM (inactive)
GI50 (ACHN): > 100 µM (inactive)
GI50 (BT-549): > 10 µM (inactive)
GI50 (CAKI-1): > 100 µM (inactive)
GI50 (CCRF-CEM): > 100 µM (inactive)
GI50 (COLO 205): > 100 µM (inactive)
GI50 (DU-145): > 100 µM (inactive)
GI50 (EKVX): > 100 µM (inactive)
GI50 (HCT-116): > 100 µM (inactive)
GI50 (HCT-15): > 100 µM
GI50 (HL-60): > 100 µM (inactive)
GI50 (HOP-62): > 100 µM (inactive)
GI50 (HT-29): > 100 µM (inactive)
GI50 (Hs-578T): > 100 µM (inactive)
GI50 (IGROV-1): > 100 µM (inactive)
GI50 (K562): > 100 µM (inactive)
GI50 (KM12): > 100 µM (inactive)
GI50 (LOX IMVI): > 100 µM (inactive)
GI50 (M14): > 100 µM (inactive)
GI50 (MCF7): > 100 µM (inactive)
GI50 (MDA-MB-231): > 100 µM (inactive)
GI50 (MDA-MB-435): > 100 µM (inactive)
GI50 (MDA-N): > 100 µM (inactive)
GI50 (MOLT-4): > 100 µM (inactive)
GI50 (Malme-3M): > 100 µM (inactive)
GI50 (NCI-H226): > 100 µM (inactive)
GI50 (NCI-H23): > 100 µM (inactive)
GI50 (NCI-H460): > 100 µM (inactive)
GI50 (NCI-H522): > 100 µM (inactive)
GI50 (NCI/ADR-RES): > 100 µM (inactive)
GI50 (OVCAR-3): > 100 µM (inactive)
GI50 (OVCAR-4): > 100 µM (inactive)
GI50 (OVCAR-5): > 100 µM (inactive)
GI50 (OVCAR-8): > 100 µM (inactive)
GI50 (PC-3): > 100 µM (inactive)
GI50 (RPMI-8226): > 100 µM (inactive)
GI50 (RXF 393): > 100 µM (inactive)
GI50 (SF-268): > 100 µM (inactive)
GI50 (SF-295): > 100 µM (inactive)
GI50 (SK-MEL-28): > 100 µM (inactive)
GI50 (SK-MEL-5): > 100 µM (inactive)
GI50 (SK-OV-3): > 100 µM (inactive)
GI50 (SN12C): > 100 µM (inactive)
GI50 (SNB-19): > 100 µM (inactive)
GI50 (SNB-75): > 100 µM (inactive)
GI50 (SR): > 100 µM (inactive)
GI50 (T47D): > 100 µM (inactive)
GI50 (TK-10): > 100 µM (inactive)
GI50 (U-251): > 100 µM (inactive)
GI50 (UACC-257): > 100 µM (inactive)
GI50 (UACC-62): > 100 µM (inactive)
GI50 (UO-31): > 100 µM (inactive)

COc1c(OC)c(OC)c2c(=O)c(OC)c(-c3ccc4c(c3)OCO4)oc2c1OC
GI50 (786-0): > 100 µM (inactive)
GI50 (A498): 66.2 µM (inactive)
GI50 (A549): 53.2 µM (inactive)
GI50 (ACHN): 68.7 µM (inactive)
GI50 (BT-549): > 100 µM (inactive)
GI50 (CAKI-1): > 100 µM (inactive)
GI50 (CCRF-CEM): 23.8 µM (inactive)
GI50 (COLO 205): > 100 µM (inactive)
GI50 (DU-145): > 100 µM (inactive)
GI50 (EKVX): 82.8 µM (inactive)
GI50 (HCC 2998): > 100 µM (inactive)
GI50 (HCT-116): 86.7 µM (inactive)
GI50 (HCT-15): 78.5 µM
GI50 (HL-60): 11.6 µM (inactive)
GI50 (HOP-62): > 100 µM (inactive)
GI50 (HOP-92): 1.48 µM (inactive)
GI50 (HT-29): > 100 µM (inactive)
GI50 (Hs-578T): > 100 µM (inactive)
GI50 (IGROV-1): > 100 µM (inactive)
GI50 (K562): 64.7 µM (inactive)
GI50 (KM12): > 100 µM (inactive)
GI50 (LOX IMVI): > 100 µM (inactive)
GI50 (M14): > 100 µM (inactive)
GI50 (MCF7): > 100 µM (inactive)
GI50 (MDA-MB-231): > 100 µM (inactive)
GI50 (MDA-MB-435): 82.4 µM (inactive)
GI50 (MDA-N): > 100 µM (inactive)
GI50 (MOLT-4): 39.7 µM (inactive)
GI50 (Malme-3M): > 100 µM (inactive)
GI50 (NCI-H226): > 100 µM (inactive)
GI50 (NCI-H23): > 100 µM (inactive)
GI50 (NCI-H460): > 100 µM (inactive)
GI50 (NCI-H522): > 100 µM (inactive)
GI50 (NCI/ADR-RES): 86.9 µM (inactive)
GI50 (OVCAR-3): > 100 µM (inactive)
GI50 (OVCAR-4): > 100 µM (inactive)
GI50 (OVCAR-5): > 100 µM (inactive)
GI50 (OVCAR-8): 61 µM (inactive)
GI50 (PC-3): 69.2 µM (inactive)
GI50 (RXF 393): > 100 µM (inactive)
GI50 (SF-268): > 100 µM (inactive)
GI50 (SF-295): > 100 µM (inactive)
GI50 (SF-539): > 100 µM (inactive)
GI50 (SK-MEL-28): > 100 µM (inactive)
GI50 (SK-MEL-2): > 100 µM (inactive)
GI50 (SK-MEL-5): 44.8 µM (inactive)
GI50 (SK-OV-3): > 100 µM (inactive)
GI50 (SN12C): > 100 µM (inactive)
GI50 (SNB-19): > 100 µM (inactive)
GI50 (SNB-75): 65.3 µM (inactive)
GI50 (SW-620): > 100 µM (inactive)
GI50 (T47D): 41.9 µM (inactive)
GI50 (TK-10): > 100 µM (inactive)
GI50 (U-251): > 100 µM (inactive)
GI50 (UACC-257): > 100 µM (inactive)
GI50 (UACC-62): > 100 µM (inactive)
GI50 (UO-31): 57.8 µM (inactive)
